Laboratory results as given in US20250115598A1 (Anaxis Pharma Pty Ltd, priority 2021, published 2025).

Columns and labels:
[1] = target: endogenous MLKL in MDF (Mus musculus (Mouse), UniProt Q9D2Y4); experiment: Degradation assay: endogenous MLKL in MDF (western blot); conditions: MDF cells, 24 h incubation with compound, MLKL adjusted for loading with GAPDH, normalized to DMSO only control, read-out: Degradation of endogenous MLKL in MDF (DC50 cell-based assay)
In short: (§1)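 MDF (seeded the day before) or U937 cells were treated 24 h at 37 °C, 10% CO2 with compound at 10, 2, 0.4, 0.08 and 0.016 μM final. Endogenous MLKL was quantified by western blot (anti-MLKL 3H1), normalized to GAPDH. Percent degradation was taken relative to DMSO control.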

[2] = system: Immortalised Mouse Dermal Fibroblasts (MDFs); experiment: Cellular assay: inhibition of TSI induced necroptosis, CellTitre-Glo viability; conditions: Mus musculus, Fibroblast; MDF, 3 hours TSI cocktail, Table 27; read-out: Inhibition of TSI-induced necroptosis (IC50 cell-based assay) in MDF
In short: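 Immortalised mouse dermal fibroblasts (2200 cells/well) pretreated 30 min with compound, 10-point 1:3 series from 36 μM, 0.3% DMSO. Then 3 h at 37° C. with TNF (100 ng/ml), Smac mimetic (500 nM) and IDN-6556 (10 μM). CellTiter-Glo luminescence normalised to DMSO (100%) and DMSO+TSI (0%); IC50 from 4-parameter logistic fit.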

[3] = target: endogenous MLKL in U937 (Homo sapiens (Human), UniProt Q8NB16); experiment: Degradation assay: endogenous MLKL in U937 (western blot); conditions: U937, 24 h incubation, read-out: Degradation of endogenous MLKL in U937 (DC50 cell-based assay)
In short: as §1

[4] = target: human MLKL (full length) (Homo sapiens (Human), UniProt Q8NB16); experiment: KINOMEscan binding assay, human MLKL (full length); conditions: hMLKL, Table 25; read-out: MLKL (KD)
In short: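 Tagged kinase + immobilized ligand beads + compound; eluted kinase quantified by qPCR. Kinase source: T7 phage lysate (BL21-derived E. coli, 32 °C) or HEK-293 with DNA tag. 11-pt 3-fold series, 1% DMSO, top 30,000 nM (most). Hill fit, slope −1 → Kd.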

Chain of human MLKL (full length) (Q8NB16 whole entry): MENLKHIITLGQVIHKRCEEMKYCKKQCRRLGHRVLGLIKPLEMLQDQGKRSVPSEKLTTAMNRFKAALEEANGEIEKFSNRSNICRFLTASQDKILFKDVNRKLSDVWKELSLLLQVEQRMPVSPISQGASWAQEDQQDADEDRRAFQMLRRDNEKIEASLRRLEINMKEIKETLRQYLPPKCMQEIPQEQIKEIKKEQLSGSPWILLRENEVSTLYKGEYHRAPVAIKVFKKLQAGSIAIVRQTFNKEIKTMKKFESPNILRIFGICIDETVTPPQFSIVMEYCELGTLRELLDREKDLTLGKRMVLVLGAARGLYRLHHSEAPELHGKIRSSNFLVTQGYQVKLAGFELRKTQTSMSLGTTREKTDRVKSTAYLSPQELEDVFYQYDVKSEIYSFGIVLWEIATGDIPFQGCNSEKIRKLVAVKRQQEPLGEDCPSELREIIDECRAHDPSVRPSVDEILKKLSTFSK
Chain of endogenous MLKL in U937 (Q8NB16 whole entry): as above
Chain of endogenous MLKL in MDF (Q9D2Y4 whole entry): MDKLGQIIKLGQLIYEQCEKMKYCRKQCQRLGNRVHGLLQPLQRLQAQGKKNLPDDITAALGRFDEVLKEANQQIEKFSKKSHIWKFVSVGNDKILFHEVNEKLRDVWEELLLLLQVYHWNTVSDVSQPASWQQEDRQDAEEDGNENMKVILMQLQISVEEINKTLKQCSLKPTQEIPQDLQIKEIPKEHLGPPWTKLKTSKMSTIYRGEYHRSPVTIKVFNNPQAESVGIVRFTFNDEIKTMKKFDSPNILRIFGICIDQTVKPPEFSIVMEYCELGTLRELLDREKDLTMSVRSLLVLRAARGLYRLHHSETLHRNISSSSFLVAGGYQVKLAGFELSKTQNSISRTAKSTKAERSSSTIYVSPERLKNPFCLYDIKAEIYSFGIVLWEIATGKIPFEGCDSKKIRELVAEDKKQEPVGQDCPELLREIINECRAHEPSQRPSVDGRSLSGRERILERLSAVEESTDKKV

SMILES | DC50 [1] [nM] | DC50 [3] [nM] | Kd [4] [nM] | IC50 [2] [nM]
C[C@H](Oc1cc(-c2nn(C)c3c(-c4cnn(C5CCN(C(=O)CC6CCN(c7cccc8c7C(=O)N(C7CCC(=O)NC7=O)C8=O)CC6)CC5)c4)cnc(N)c23)ccc1NS(=O)(=O)C(F)F)c1ccc(F)cc1 (stereo partly drawn) [Compound 1048, N-[4-(4-amino-7-{1-[1-(2-{1-[2-(2,6-dioxopiperidin-3-yl)-1,3-dioxo-2,3-dihydro-1H-isoindol-4-yl]piperidin-4-yl}acetyl)piperidin-4-yl]-1H-pyrazol-4-yl}-1-methyl-1H-pyrazolo[4,3-c]pyridin-3-yl)-2-[(1S)-1-(4-fluorophenyl)ethoxy]phenyl]-1,1-difluoromethanesulfonamide] | < 1000 | 1000 to 10000 | < 10 | < 1000
C[C@H](Oc1cc(-c2nn(C)c3c(-c4cnn(C5CCN(CCCC6CCN(c7cccc8c7C(=O)N(C7CCC(=O)NC7=O)C8=O)CC6)CC5)c4)cnc(N)c23)ccc1NS(=O)(=O)C(F)F)c1ccc(F)cc1 (stereo partly drawn) [Compound 1078, N-[4-(4-amino-7-{1-[1-(3-{1-[2-(2,6-dioxopiperidin-3-yl)-1,3-dioxo-2,3-dihydro-1H-isoindol-4-yl]piperidin-4-yl}propyl)piperidin-4-yl]-1H-pyrazol-4-yl}-1-methyl-1H-pyrazolo[4,3-c]pyridin-3-yl)-2-[(1S)-1-(4-fluorophenyl)ethoxy]phenyl]-1,1-difluoromethane-sulfonamide] | 1000 to 10000 | 1000 to 10000 | < 10 | < 1000
C[C@H](Oc1cc(-c2nn(C)c3c(-c4cnn(C5CCN(C(=O)[C@H]6CC[C@H](Nc7cccc8c7C(=O)N(C7CCC(=O)NC7=O)C8=O)CC6)CC5)c4)cnc(N)c23)ccc1NS(=O)(=O)C(F)F)c1ccc(F)cc1 (stereo partly drawn) [Compound 1058, N-{4-[4-amino-1-methyl-7-(1-{1-[(trans)-4-{[2-(2,6-dioxopiperidin-3-yl)-1,3-dioxo-2,3-dihydro-1H-isoindol-4-yl]amino}cyclohexane-carbonyl]piperidin-4-yl}-1H-pyrazol-4-yl)-1H-pyrazolo[4,3-c]pyridin-3-yl]-2-[(1S)-1-(4-fluorophenyl)ethoxy]phenyl}-1,1-difluoromethanesulfonamide] | < 1000 | 1000 to 10000 | 10 to 1000 | < 1000
C[C@H](Oc1cc(-c2nn(C)c3c(-c4cnn(C5CCN(C(=O)CC(=O)N6CCN(c7cccc8c7C(=O)N(C7CCC(=O)NC7=O)C8=O)CC6)CC5)c4)cnc(N)c23)ccc1NS(=O)(=O)C(F)F)c1ccc(F)cc1 (stereo partly drawn) [Compound 1098, N-[4-(4-amino-7-{1-[1-(3-{4-[2-(2,6-dioxopiperidin-3-yl)-1,3-dioxo-2,3-dihydro-1H-isoindol-4-yl]piperazin-1-yl}-3-oxopropanoyl)piperidin-4-yl]-1H-pyrazol-4-yl}-1-methyl-1H-pyrazolo[4,3-c]pyridin-3-yl)-2-[(1S)-1-(4-fluorophenyl)ethoxy]phenyl]-1,1-difluoromethanesulfonamide] | < 1000 | < 1000 | < 10 | 1000 to 10000
C[C@H](Oc1cc(-c2nn(C)c3c(-c4cnn(C5CCN(C(=O)C6CCN(c7cccc8c7C(=O)N(C7CCC(=O)NC7=O)C8=O)C6)CC5)c4)cnc(N)c23)ccc1NS(=O)(=O)C(F)F)c1ccc(F)cc1 (stereo partly drawn) [Compound 1054, N-(4-{4-amino-7-[1-(1-{1-[2-(2,6-dioxopiperidin-3-yl)-1,3-dioxo-2,3-dihydro-1H-isoindol-4-yl]pyrrolidine-3-carbonyl}piperidin-4-yl)-1H-pyrazol-4-yl]-1-methyl-1H-pyrazolo [4,3-c]pyridin-3-yl}-2-[(1S)-1-(4-fluorophenyl)ethoxy]phenyl)-1,1-difluoromethanesulfonamide] | < 1000 | < 1000 | 10 to 1000 | < 1000
C[C@H](Oc1cc(-c2nn(C)c3c(-c4cnn(C5CCN(C(=O)C6CN(c7cccc8c7C(=O)N(C7CCC(=O)NC7=O)C8=O)C6)CC5)c4)cnc(N)c23)ccc1NS(=O)(=O)C(F)F)c1ccc(F)cc1 (stereo partly drawn) [Compound 1051, N-(4-{4-amino-7-[1-(1-{1-[2-(2,6-dioxopiperidin-3-yl)-1,3-dioxo-2,3-dihydro-1H-isoindol-4-yl]azetidine-3-carbonyl}piperidin-4-yl)-1H-pyrazol-4-yl]-1-methyl-1H-pyrazolo[4,3-c]pyridin-3-yl}-2-[(1S)-1-(4-fluorophenyl)ethoxy]phenyl)-1,1-difluoromethane-sulfonamide] | < 1000 | 1000 to 10000 | 10 to 1000 | 1000 to 10000

Continued, in another order:

DC50 [1] [nM] | DC50 [3] [nM] | Kd [4] [nM] | SMILES | IC50 [2] [nM]
< 1000 | < 1000 | < 10 | Cn1nc(-c2ccc(NS(=O)(=O)CC(F)(F)F)c(F)c2)c2c(N)ncc(-c3cnn(C4CCN(C(=O)[C@H]5C[C@H](Nc6cccc7c6C(=O)N(C6CCC(=O)NC6=O)C7=O)C5)CC4)c3)c21 (stereo partly drawn) [Compound 1134, N-{4-[4-amino-1-methyl-7-(1-{1-[(trans)-3-{[2-(2,6-dioxopiperidin-3-yl)-1,3-dioxo-2,3-dihydro-1H-isoindol-4-yl]amino}cyclobutanecarbonyl]piperidin-4-yl}-1H-pyrazol-4-yl)-1H-pyrazolo[4,3-c]pyridin-3-yl]-2-fluorophenyl}-2,2,2-trifluoroethane-1-sulfonamide] | < 1000
< 1000 | < 1000 | 10 to 1000 | C[C@H](Oc1cc(-c2nn(C)c3c(-c4cnn(C5CCC(C(=O)N6CCC(c7cccc8c7C(=O)N(C7CCC(=O)NC7=O)C8=O)CC6)CC5)c4)cnc(N)c23)ccc1NS(=O)(=O)C(F)F)c1ccc(F)cc1 (stereo partly shown) [Compound 1127] | < 1000
< 1000 | < 1000 | < 10 | C[C@H](Oc1cc(-c2nn(C)c3c(-c4cnn(C5CCN(C(=O)C6CCC(c7ccc8c(c7)C(=O)N(C7CCC(=O)NC7=O)C8=O)CC6)CC5)c4)cnc(N)c23)ccc1NS(=O)(=O)C(F)F)c1ccc(F)cc1 (stereo partly drawn) [Compound 1126, N-(4-{4-amino-7-[1-(1-{4-[2-(2,6-dioxopiperidin-3-yl)-1,3-dioxo-2,3-dihydro-1H-isoindol-5-yl]cyclohexanecarbonyl}piperidin-4-yl)-1H-pyrazol-4-yl]-1-methyl-1H-pyrazolo[4,3-c]pyridin-3-yl}-2-[(1S)-1-(4-fluorophenyl)ethoxy]phenyl)-1,1-difluoromethanesulfonamide] | < 1000
< 1000 | < 1000 | 10 to 1000 | C[C@H](Oc1cc(-c2nn(C)c3c(-c4cnn(C5CCN(C(=O)C6CCC(c7cccc8c7C(=O)N(C7CCC(=O)NC7=O)C8=O)CC6)CC5)c4)cnc(N)c23)ccc1NS(=O)(=O)C(F)F)c1ccc(F)cc1 (stereo partly drawn) [Compound 1125, N-(4-{4-amino-7-[1-(1-{4-[2-(2,6-dioxopiperidin-3-yl)-1,3-dioxo-2,3-dihydro-1H-isoindol-4-yl]cyclohexane-carbonyl}piperidin-4-yl)-1H-pyrazol-4-yl]-1-methyl-1H-pyrazolo[4,3-c]pyridin-3-yl}-2-[(1S)-1-(4-fluorophenyl)ethoxy]phenyl)-1,1-difluoromethanesulfonamide] | < 1000
